Patent US7049334B2, “Enhancement of learning and memory and treatment of amnesia” (priority 2001, dated 2006)

Assays:
[1] = test system: cortico-amygdala pathway (lateral amygdala); assay: LTP in cortico-amygdala pathway (fEPSP); type: cell-based, Wistar rats; details: three trains (100 Hz, 1 sec at 3 min interval); in the presence of compound 1; n=4
Protocol: After decapitation, brains of either adult ([…], for the induction of long-term potentiation) or young (2–3 weeks old, for the induction of long-term depression) Wistar rats were rapidly removed, and the hippocampus was dissected out. Transverse hippocampal slices (450 μm thickness) were immediately placed in an ice-cold cutting buffer containing 124 mM NaCl, 3 mM KCl, 1.0 mM Na2HPO4, 25 mM NaHCO3, 0.5 mM CaCl2, 5.0 mM MgSO4, 10 mM glucose, saturated with 95% O2 and 5% CO2. The slices were then maintained in an interface chamber at room temperature, and perfused at flow rate of 1–2 mL/min with artificial cerebrospinal fluid (ACSF). […] The test pulse duration was 100 μsec, and test responses were elicited at 0.02 Hz. To record field potentials in the cortico-amygdala pathway, a stimulating electrode was placed in the external capsule, which contained fibers from the auditory cortex to the lateral amygdala. Bicuculine (10 μM) was present in the perfusion solution when the fEPSPs of amygdala were recorded. […] Evoked fEPSPs were recorded and data were analyzed. The initial slope of the fEPSPs was calculated, and the data were expressed as percentages of the average of the base-line slope of the fEPSPs. […]

rats (spatial memory) = assay: Morris water maze; type: in vivo
Protocol: Morris water maze: Morris water maze was performed in a circular pool (224 cm in diameter, 46 cm in height) located in a room with distinctive visual cues. Water was filled to a depth of 36 cm and a transparent plastic platform (25×25 cm, 32 cm in height) was located at the center of a fixed quadrant. Rats were trained for two days in the task environment: free-swimming in the pool without the transparent plastic platform. Each training session was 2 min and the rats were picked up from the pool by an experimenter. Then, rats received 4 consecutive daily training trials for the following six days. During each training trial, each rat was placed into the water randomly from one of the quadrants. The rat had to swim until it climbed onto the plastic platform submerged underneath the water. The time duration from being placed into the water to climbing onto the plastic platform was recorded and defined as escape latency. […] Each rat stayed on the platform for 60 s, which also served as the interval of trial. Compound 1 (1 mg/kg) or vehicle was daily injected to each rat 10 min before the first training trial. After the last training trial of each day, each rat was dried by a towel, and an electric heater was placed in its home cage.
Substantial evidence implicates the hippocampus in acquisition and retention of spatial information. See, e.g., Ohon et al. (1979) Behav. Brain Sci. 2: 316–365; and Barnes (1988) Trend Neurosci. 11: 163–169. The effect of Compound 1 on the acquisition of spatial memory in the Morris water maze was tested. Rats received 4 consecutive training trials every day. Compound 1 (1 mg/kg) was daily injected (i.p., 1 mg/kg) 10 min before the first trial of training. […] The escape latencies of 2˜4 trials were 93.8±8.7 s, 79.3±12/3 s and 57.6±12.5 s for a control group, and 50.4±10.2 s, 47.3±6.8 s and 30.3±10.3 for the Compound 1 group (n=10), respectively. The escape latencies of the first trial on the following 3 training days were also markedly shortened in the Compound 1 group. The escape latencies were 91.1±9.8 s, 47.1±3.9 s and 35.3±6.1 s for the control group, and 55.4±12.8 s, 15.3±2.1 s, and 13.4±1.7 s for the Compound 1 group (n=10), respectively. […] The escape latency is shorter in the Compound 1 group throughout the whole experimental period up to 21 days although Compound 1 was only administered […] for 4 days. The mean escape latency on the day-21 is 13.5±1.8 s and 6.0±0.5 s (n=10 each) for the control group and the Compound 1 group, respectively. From results shown above, Compound 1 is a promising drug for improving learning and memory. Compound 1 was mixed with 1.25% carboxymethylcellulose (CMC) and orally delivered to stomach (10 mg/kg) directly 30 min before the first trial for 6 successive days.
Since L-NAME antagonized Compound 1-induced LTP enhancement in hippocampal slices, in vivo experiments were performed to test the effect of L-NAME on the improved learning and memory provoked by Compound 1. In these experiments, rats chronically implanted with cannulae were injected intracerebroventrically with L-NAME (1 mmole/10 mL) or saline 10 min before the first trial of daily training, concomitant with i.p. injection of Compound 1 (1 mg/kg). […] Intracerebroventricular administration of KT 5823 also impaired the Compound 1-induced enhancement.

mice (motor learning) = assay: Rotorod test; type: in vivo; details: i.p. 1 mg/kg 20 min before first trial, 28 rpm
Protocol: Rotorod Test: This experiment was performed with mice (male, 20–25 gm). A rotorod apparatus was a plastic cylindrical rod (3 cm in diameter×13 cm in length). The rod was supported at the ends by two walls and was 25 cm from the base of the walls. The walls at the ends of the rod were high enough so that the mice cannot climb off the rod. Three trials were performed for each experiment. Compound 1 (1 mg/kg) or vehicle was i.p. injected 20 min before the first trial. For each trial of the rotorod test, the mice were placed on the rod and timed until they fell off the rod. They were timed up to a maximum of 3 min. The interval was 10 min. The rod was turned by an electric motor at 28 rpm.
Cerebellar nitric oxide has been also reported to be involved in LTD and motor learning. See, e.g., Li et al. (1995) J. Neurophysiol. 74: 489–494. Compound 1 improving motor learning was studied. Mice were chosen for this kind of experiment. […] The performance of control mice got improvement with increasing trial numbers, with a better improvement at the third trial. […] It is obvious that Compound 1 can also improve motor learning by mainly acting on the cerebellum.

[2] = i.p. 1 mg/kg daily 10 min before first trial, n=10

Compound: OCc1ccc(-c2nn(Cc3ccccc3)c3ccccc23)o1 [Compound 1, 1-benzyl-3-(5′-hydroxymethyl-2′-furyl)-indazole]
- duration of enduring LTP in amygdala [1]: at least 1 hr
- enhanced learning and memory induced by Compound 1, with L-NAME (rats (spatial memory); L-NAME intracerebroventricular 10 min before first trial, with i.p. Compound 1 (1 mg/kg)): significantly blocked
- escape latency, trial 2 of first training day (rats (spatial memory); [2]): 50.4 ± 10.2 s
- escape latency, trial 3 of first training day (rats (spatial memory); [2]): 47.3 ± 6.8 s
- escape latency, trial 4 of first training day (rats (spatial memory); i.p. 1 mg/kg daily 10 min before first trial, n=10, in s (unit assumed)): 30.3±10.3
- escape latency of the first trial, first of the following 3 training days (rats (spatial memory); i.p. 1 mg/kg, n=10): 55.4 ± 12.8 s
- escape latency of the first trial, second of the following 3 training days (rats (spatial memory); i.p. 1 mg/kg, n=10): 15.3 ± 2.1 s
- escape latency of the first trial, third of the following 3 training days (rats (spatial memory); i.p. 1 mg/kg, n=10): 13.4 ± 1.7 s
- mean escape latency on day-21 (rats (spatial memory); i.p. 1 mg/kg, n=10): 6.0 ± 0.5 s
- Compound 1-induced enhancement, with KT 5823 (rats (spatial memory); intracerebroventricular KT 5823): impaired
- effect of oral administration on memory (rats (spatial memory); oral 10 mg/kg in 1.25% CMC, 30 min before first trial for 6 successive days): promoted short-term and long-term memory
- motor coordination on a turning rotorod (mice (motor learning)): significantly improved motor coordination
